Experimental data reported in patent US20250171437A1 (Agios Pharmaceuticals,Inc., priority 2022, published 2025).

Molecular target: T1, human PAH with the R408W mutation (A375 R408W cells) (Homo sapiens, UniProt P00439, R408W)
T1 construct: expressed in transfected cells
T1 sequence (P00439 1-452 R408W): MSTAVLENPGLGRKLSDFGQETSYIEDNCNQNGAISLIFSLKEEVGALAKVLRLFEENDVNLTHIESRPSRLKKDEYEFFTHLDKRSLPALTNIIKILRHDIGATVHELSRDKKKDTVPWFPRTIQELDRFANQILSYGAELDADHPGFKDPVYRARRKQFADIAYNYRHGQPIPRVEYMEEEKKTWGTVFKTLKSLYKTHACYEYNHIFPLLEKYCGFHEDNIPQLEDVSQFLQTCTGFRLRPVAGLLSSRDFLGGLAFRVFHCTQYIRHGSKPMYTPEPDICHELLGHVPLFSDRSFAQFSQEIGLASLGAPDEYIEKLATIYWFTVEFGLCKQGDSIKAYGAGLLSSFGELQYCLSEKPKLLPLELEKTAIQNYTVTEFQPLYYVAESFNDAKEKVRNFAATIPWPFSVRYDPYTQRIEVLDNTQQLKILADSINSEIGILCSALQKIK
Experiment: Cell Based Phenylalanine Flux Assay
Conditions: A375 R408W cells; 24 hrs with compound, then 20 μM sepiapterin and 800 μM 13C9,15N-Phenylalanine for 4 hours; 13C-Tyrosine by LC-MS; average where tested multiple times
Method in brief: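 A375 cells stably expressing lentiviral human PAH R408W were treated with compounds (10-point 2-fold dilutions, 0.5% DMSO, duplicate) for 24 h at 37 °C. Then 20 μM sepiapterin and 800 μM 13C9,15N-Phe were added for 4 h; media 13C-Tyr was measured by LC-MS to give AC50.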

Structure (SMILES) | AC50
O=C(CC1CC1)N1CCc2[nH]cnc2[C@H]1c1nc2cc(F)ccc2o1 [Example 37, (S)-2-cyclopropyl-1-(4-(5-fluorobenzo[d]oxazol-2-yl)-6,7-dihydro-1H-imidazo[4,5-c]pyridin-5(4H)-yl)ethanone] | 1000 to 5000 nM
O=C(CC1CC1)N1CCc2[nH]cnc2[C@@H]1c1nc2cc(F)ccc2o1 [Example 38, (R)-2-cyclopropyl-1-(4-(5-fluorobenzo[d]oxazol-2-yl)-6,7-dihydro-1H-imidazo[4,5-c]pyridin-5(4H)-yl)ethanone] | 1000 to 5000 nM
O=C(c1ocnc1C1CC1)N1CCc2[nH]cnc2[C@H]1c1nc2cc(F)ccc2o1 [Example 41, (S)-(4-cyclopropyloxazol-5-yl)(4-(5-fluorobenzo[d]oxazol-2-yl)-6,7-dihydro-1H-imidazo[4,5-c]pyridin-5(4H)-yl)methanone] | ≤ 500 nM
O=C(c1ocnc1C1CC1)N1CCc2[nH]cnc2[C@@H]1c1nc2cc(F)ccc2o1 [Example 42, (R)-(4-cyclopropyloxazol-5-yl)(4-(5-fluorobenzo[d]oxazol-2-yl)-6,7-dihydro-1H-imidazo[4,5-c]pyridin-5(4H)-yl)methanone] | 1000 to 5000 nM
CC(C)(O)c1nc(C(F)(F)F)c(C(=O)N2CCc3[nH]cnc3[C@H]2c2nc3cc(F)ccc3o2)o1 [Example 45, (S)-(4-(5-fluorobenzo[d]oxazol-2-yl)-6,7-dihydro-1H-imidazo[4,5-c]pyridin-5(4H)-yl)(2-(2-hydroxypropan-2-yl)-4-(trifluoromethyl)oxazol-5-yl)methanone] | ≤ 500 nM
CC(C)(O)c1nc(C(F)(F)F)c(C(=O)N2CCc3[nH]cnc3[C@@H]2c2nc3cc(F)ccc3o2)o1 [Example 46, (R)-(4-(5-fluorobenzo[d]oxazol-2-yl)-6,7-dihydro-1H-imidazo[4,5-c]pyridin-5(4H)-yl)(2-(2-hydroxypropan-2-yl)-4-(trifluoromethyl)oxazol-5-yl)methanone] | ≤ 500 nM
CN(C)CCc1ccc2c(C(=O)N3CCc4[nH]cnc4[C@H]3c3nc4cc(F)ccc4o3)cnn2c1 [Example 47, (S)-(6-(2-(dimethylamino)ethyl)pyrazolo[1,5-a]pyridin-3-yl)(4-(5-fluorobenzo[d]oxazol-2-yl)-6,7-dihydro-1H-imidazo[4,5-c]pyridin-5(4H)-yl)methanone] | 1000 to 5000 nM

Results, then the compound that gave them:

AC50 | Structure (SMILES)
1000 to 5000 nM | CC(F)(F)c1ncc(C(=O)N2CCc3[nH]cnc3[C@@H]2c2nc3cc(F)ccc3o2)s1 [Example 36, (R)-(2-(1,1-difluoroethyl)thiazol-5-yl)(4-(5-fluorobenzo[d]oxazol-2-yl)-6,7-dihydro-1H-imidazo[4,5-c]pyridin-5(4H)-yl)methanone]
500 to 1000 nM | O=C(c1nnc(-c2ccccn2)o1)N1CCc2[nH]cnc2[C@H]1c1nc2cc(F)ccc2o1 [Example 39, (S)-(4-(5-fluorobenzo[d]oxazol-2-yl)-6,7-dihydro-1H-imidazo[4,5-c]pyridin-5(4H)-yl)(5-(pyridin-2-yl)-1,3,4-oxadiazol-2-yl)methanone]
1000 to 5000 nM | O=C(c1nnc(-c2ccccn2)o1)N1CCc2[nH]cnc2[C@@H]1c1nc2cc(F)ccc2o1 [Example 40, (R)-(4-(5-fluorobenzo[d]oxazol-2-yl)-6,7-dihydro-1H-imidazo[4,5-c]pyridin-5(4H)-yl)(5-(pyridin-2-yl)-1,3,4-oxadiazol-2-yl)methanone]
≤ 500 nM | O=C(c1oc(-c2ccccn2)nc1C1CC1)N1CCc2[nH]cnc2[C@H]1c1nc2cc(F)ccc2o1 [Example 43, (S)-(4-cyclopropyl-2-(pyridin-2-yl)oxazol-5-yl)(4-(5-fluorobenzo[d]oxazol-2-yl)-6,7-dihydro-1H-imidazo[4,5-c]pyridin-5(4H)-yl)methanone]
1000 to 5000 nM | O=C(c1oc(-c2ccccn2)nc1C1CC1)N1CCc2[nH]cnc2[C@@H]1c1nc2cc(F)ccc2o1 [Example 44, (R)-(4-cyclopropyl-2-(pyridin-2-yl)oxazol-5-yl)(4-(5-fluorobenzo[d]oxazol-2-yl)-6,7-dihydro-1H-imidazo[4,5-c]pyridin-5(4H)-yl)methanone]
